# Measured values reported in patent US20180200257A1, “METHODS FOR THE TREATMENT OF INFLAMMATORY DISORDERS” (Galapagos NV, priority 2015, published 2018).
# System: subjects with moderately to severely active RA who have an inadequate response to methotrexate (MTX)
# Test: Study 2 (monotherapy) - Alanine Aminotransferase (ALT) levels
# Assay type: in vivo, human
# Description: Randomized, double-blind, placebo-controlled, multicenter, phase IIb dose finding study of Compound 1 (dosed as a [Compound 1:HCl:3H2O]) administered for 24 weeks as monotherapy to subjects with moderately to severely active rheumatoid arthritis who have an inadequate response to methotrexate alone
# Double-blind, placebo-controlled, monotherapy study in subjects with moderately to severely active RA who have an inadequate response to methotrexate (MTX) (oral or parenteral).
# 280 subjects randomized to one of 3 doses of Compound 1 (dosed as a [Compound 1:HCl:3H2O]) or to placebo, given once daily (q.d.).
# Twelve weeks of treatment with Compound 1 (dosed as a [Compound 1:HCl:3H2O]) at 50 mg, 100 mg, or 200 mg q.d.; or placebo. At Week 12, all subjects on placebo and the subjects on the 50 mg dose who have not achieved 20% improvement in swollen joint count (SJC66) and tender joint count (TJC68) will be assigned to 100 mg q.d. in a blinded fashion and will continue treatment until Week 24. Subjects in the other groups will maintain their randomized treatment until Week 24.
# ALT levels determination is available at Quest Diagnostics, Clinical Trials, Quest House, 125-135 Staines Road, Hounslow, Middlesex, TW3 3JB, United Kingdom under Catalogue n#84460.
# ALT catalyzes the exchange of the amino group of alanine with the oxogroup of 2-ketoglutarate to form pyruvate and glutamate. In the presence of lactic dehydrogenase, pyruvate reacts with NADH to form NAD+, measured spectrophotometrically. Guidelines for the ALT value have been issued by the association for Clinical Biochemistry and Laboratory Medicine, 130-132 Tooley Street LONDON SE1 2TU, united Kingdom, wherein the ALT value should be below 34 U/l in Female and below 52 U/L in male.
# Subjects in the other groups maintained their randomized treatment until Week 24.
# [1] = 12 weeks results, 50 mg q.d., week 1
# [2] = 12 weeks results, 50 mg q.d., week 2
# [3] = 12 weeks results, 50 mg q.d., week 4
# [4] = 12 weeks results, 50 mg q.d., week 8
# [5] = 12 weeks results, 50 mg q.d., week 12
# [6] = 12 weeks results, 100 mg q.d., week 1
# [7] = 12 weeks results, 100 mg q.d., week 2
# [8] = 12 weeks results, 100 mg q.d., week 4
# [9] = 12 weeks results, 100 mg q.d., week 8
# [10] = 12 weeks results, 100 mg q.d., week 12
# [11] = 12 weeks results, 200 mg q.d., week 1
# [12] = 12 weeks results, 200 mg q.d., week 2
# [13] = 12 weeks results, 200 mg q.d., week 4
# [14] = 12 weeks results, 200 mg q.d., week 8
# [15] = 12 weeks results, 200 mg q.d., week 12
# [16] = 24 weeks results, 50 mg q.d. non responders switching to 100 mg q.d. at week 12, week 1
# [17] = 24 weeks results, 50 mg q.d. non responders switching to 100 mg q.d. at week 12, week 2
# [18] = 24 weeks results, 50 mg q.d. non responders switching to 100 mg q.d. at week 12, week 4
# [19] = 24 weeks results, 50 mg q.d. non responders switching to 100 mg q.d. at week 12, week 8
# [20] = 24 weeks results, 50 mg q.d. non responders switching to 100 mg q.d. at week 12, week 12
# [21] = 24 weeks results, 50 mg q.d. non responders switching to 100 mg q.d. at week 12, week 16
# [22] = 24 weeks results, 50 mg q.d. non responders switching to 100 mg q.d. at week 12, week 20
# [23] = 24 weeks results, 50 mg q.d. non responders switching to 100 mg q.d. at week 12, week 24
# [24] = 24 weeks results, 50 mg q.d. responders, week 1
# [25] = 24 weeks results, 50 mg q.d. responders, week 2
structure (smiles),measurement,setting,value
"O=C(Nc1nc2cccc(-c3ccc(CN4CCS(=O)(=O)CC4)cc3)n2n1)C1CC1 [Compound 1, cyclopropanecarboxylic acid {5-[4-(1,1-dioxo-thiomorpholin-4-ylmethyl)-phenyl]-[1,2,4]triazolo[1,5-a]pyridin-2-yl}-amide]",Study 2 - ALT Mean CFB,[1],−1.4 IU/L
same,Study 2 - ALT Mean percentage CFB,[1],−1.29%
same,Study 2 - ALT Mean CFB,[2],−2.6 IU/L
same,Study 2 - ALT Mean percentage CFB,[2],−3.25%
same,Study 2 - ALT Mean CFB,[3],−2.2 IU/L
same,Study 2 - ALT Mean percentage CFB,[3],−3.73%
same,Study 2 - ALT Mean CFB,[4],−3.0 IU/L
same,Study 2 - ALT Mean percentage CFB,[4],−0.73%
same,Study 2 - ALT Mean CFB,[5],−1.4 IU/L
same,Study 2 - ALT Mean percentage CFB,[5],1.77%
same,Study 2 - ALT Mean CFB,[6],0.4 IU/L
same,Study 2 - ALT Mean percentage CFB,[6],13.98%
same,Study 2 - ALT Mean CFB,[7],0.7 IU/L
same,Study 2 - ALT Mean percentage CFB,[7],13.25%
same,Study 2 - ALT Mean CFB,[8],0.3 IU/L
same,Study 2 - ALT Mean percentage CFB,[8],17.82%
same,Study 2 - ALT Mean CFB,[9],−0.5 IU/L
same,Study 2 - ALT Mean percentage CFB,[9],7.83%
same,Study 2 - ALT Mean CFB,[10],1.3 IU/L
same,Study 2 - ALT Mean percentage CFB,[10],14.61%
same,Study 2 - ALT Mean CFB,[11],−1.8 IU/L
same,Study 2 - ALT Mean percentage CFB,[11],−0.92%
same,Study 2 - ALT Mean CFB,[12],−1.1 IU/L
same,Study 2 - ALT Mean percentage CFB,[12],1.07%
same,Study 2 - ALT Mean CFB,[13],−1.4 IU/L
same,Study 2 - ALT Mean percentage CFB,[13],4.71%
same,Study 2 - ALT Mean CFB,[14],−0.8 IU/L
same,Study 2 - ALT Mean percentage CFB,[14],8.41%
same,Study 2 - ALT Mean CFB,[15],−1.1 IU/L
same,Study 2 - ALT Mean percentage CFB,[15],5.69%
same,Study 2 - ALT Mean CFB,[16],−0.1 IU/L
same,Study 2 - ALT Mean percentage CFB,[16],0.97%
same,Study 2 - ALT Mean CFB,[17],−0.2 IU/L
same,Study 2 - ALT Mean percentage CFB,[17],−0.54%
same,Study 2 - ALT Mean CFB,[18],0.6 IU/L
same,Study 2 - ALT Mean percentage CFB,[18],4.48%
same,Study 2 - ALT Mean CFB,[19],−1.3 IU/L
same,Study 2 - ALT Mean percentage CFB,[19],−4.46%
same,Study 2 - ALT Mean CFB,[20],−0.9 IU/L
same,Study 2 - ALT Mean percentage CFB,[20],−1.26%
same,Study 2 - ALT Mean CFB,[21],0.9 IU/L
same,Study 2 - ALT Mean percentage CFB,[21],6.27%
same,Study 2 - ALT Mean CFB,[22],0.3 IU/L
same,Study 2 - ALT Mean percentage CFB,[22],4.86%
same,Study 2 - ALT Mean CFB,[23],3.2 IU/L
same,Study 2 - ALT Mean percentage CFB,[23],22.47%
same,Study 2 - ALT Mean CFB,[24],−1.7 IU/L
same,Study 2 - ALT Mean percentage CFB,[24],−1.89%
same,Study 2 - ALT Mean CFB,[25],−3.3 IU/L
same,Study 2 - ALT Mean percentage CFB,[25],−3.98%
